Source: the NIST ThermoML archive (doi:10.1016/j.jct.2005.01.017)
Numbers after ± are expanded uncertainties.

Assay: xn = mol fraction of the nth substance listed
Conditions: 101 kPa, Liquid

CC1COC(=O)O1 (configuration not stated) [4-methyl-1,3-dioxolan-2-one] + Cc1ccc(C)cc1
Conditions	mass density [kg/m3]
293.15 K, x2 = 0	1200.25 ± 40
293.15 K, x2 = 0.0487	1177.59 ± 40
293.15 K, x2 = 0.1238	1144.26 ± 40
293.15 K, x2 = 0.1793	1120.81 ± 40
293.15 K, x2 = 0.2482	1093.01 ± 40
293.15 K, x2 = 0.3125	1068.33 ± 40
293.15 K, x2 = 0.381	1043.26 ± 40
293.15 K, x2 = 0.4371	1023.64 ± 40
293.15 K, x2 = 0.4972	1003.44 ± 40
293.15 K, x2 = 0.5622	982.49 ± 40
293.15 K, x2 = 0.6329	960.71 ± 40
293.15 K, x2 = 0.6938	942.7 ± 40
293.15 K, x2 = 0.7421	928.88 ± 40
293.15 K, x2 = 0.8023	912.2 ± 40
293.15 K, x2 = 0.8592	896.93 ± 40
293.15 K, x2 = 0.9247	879.91 ± 40
303.15 K, x2 = 0	1180.56 ± 40
303.15 K, x2 = 0.0523	1157.1 ± 40
303.15 K, x2 = 0.123	1126.84 ± 40
303.15 K, x2 = 0.1836	1102.14 ± 40
303.15 K, x2 = 0.2381	1080.85 ± 40
303.15 K, x2 = 0.3263	1048.15 ± 40
303.15 K, x2 = 0.3741	1031.29 ± 40
303.15 K, x2 = 0.4233	1014.5 ± 40
303.15 K, x2 = 0.4794	996.06 ± 40
303.15 K, x2 = 0.5573	971.57 ± 40
303.15 K, x2 = 0.6233	951.77 ± 40
303.15 K, x2 = 0.6843	934.2 ± 40
303.15 K, x2 = 0.7538	914.94 ± 40
303.15 K, x2 = 0.8148	898.66 ± 40
303.15 K, x2 = 0.8731	883.59 ± 40
303.15 K, x2 = 0.9362	867.79 ± 40
313.15 K, x2 = 0	1161.28 ± 40
313.15 K, x2 = 0.0543	1137.8 ± 40
313.15 K, x2 = 0.1173	1111.72 ± 40
313.15 K, x2 = 0.1598	1094.8 ± 40
313.15 K, x2 = 0.2294	1068.21 ± 40
313.15 K, x2 = 0.2849	1047.95 ± 40
313.15 K, x2 = 0.3598	1021.87 ± 40
313.15 K, x2 = 0.4381	996.03 ± 40
313.15 K, x2 = 0.482	982.14 ± 40
313.15 K, x2 = 0.5359	965.64 ± 40
313.15 K, x2 = 0.6021	946.14 ± 40
313.15 K, x2 = 0.6721	926.39 ± 40
313.15 K, x2 = 0.7359	909.11 ± 40
313.15 K, x2 = 0.8243	886.17 ± 40
313.15 K, x2 = 0.8817	871.85 ± 40
313.15 K, x2 = 0.9274	860.74 ± 40
323.15 K, x2 = 0	1142.43 ± 40
323.15 K, x2 = 0.0623	1116.49 ± 40
323.15 K, x2 = 0.1246	1091.71 ± 40
323.15 K, x2 = 0.1822	1069.79 ± 40
323.15 K, x2 = 0.2483	1045.74 ± 40
323.15 K, x2 = 0.3193	1021.16 ± 40
323.15 K, x2 = 0.3719	1003.72 ± 40
323.15 K, x2 = 0.4389	982.42 ± 40
323.15 K, x2 = 0.5032	962.87 ± 40
323.15 K, x2 = 0.5579	946.88 ± 40
323.15 K, x2 = 0.6234	928.45 ± 40
323.15 K, x2 = 0.6972	908.56 ± 40
323.15 K, x2 = 0.7529	894.11 ± 40
323.15 K, x2 = 0.8137	878.84 ± 40
323.15 K, x2 = 0.8724	864.57 ± 40
323.15 K, x2 = 0.9378	849.15 ± 40
333.15 K, x2 = 0	1123.99 ± 40
333.15 K, x2 = 0.0598	1099.91 ± 40
333.15 K, x2 = 0.1387	1069.71 ± 40
333.15 K, x2 = 0.1738	1056.82 ± 40
333.15 K, x2 = 0.2384	1033.93 ± 40
333.15 K, x2 = 0.3283	1003.8 ± 40
333.15 K, x2 = 0.3918	983.64 ± 40
333.15 K, x2 = 0.452	965.32 ± 40
333.15 K, x2 = 0.5138	947.26 ± 40
333.15 K, x2 = 0.5821	928.14 ± 40
333.15 K, x2 = 0.6518	909.44 ± 40
333.15 K, x2 = 0.7139	893.44 ± 40
333.15 K, x2 = 0.783	876.29 ± 40
333.15 K, x2 = 0.8346	863.9 ± 40
333.15 K, x2 = 0.8814	852.95 ± 40
333.15 K, x2 = 0.9471	837.99 ± 40
343.15 K, x2 = 0	1105.98 ± 40
343.15 K, x2 = 0.0643	1081 ± 40
343.15 K, x2 = 0.1241	1058.78 ± 40
343.15 K, x2 = 0.1839	1037.51 ± 40
343.15 K, x2 = 0.245	1016.69 ± 40
343.15 K, x2 = 0.3183	992.89 ± 40
343.15 K, x2 = 0.3891	971.03 ± 40
343.15 K, x2 = 0.4498	953.11 ± 40
343.15 K, x2 = 0.5021	938.24 ± 40
343.15 K, x2 = 0.5721	919.11 ± 40
343.15 K, x2 = 0.6592	896.46 ± 40
343.15 K, x2 = 0.7134	882.94 ± 40
343.15 K, x2 = 0.7635	870.82 ± 40
343.15 K, x2 = 0.8247	856.45 ± 40
343.15 K, x2 = 0.8848	842.78 ± 40
343.15 K, x2 = 0.9522	827.92 ± 40
353.15 K, x2 = 0	1088.38 ± 40
353.15 K, x2 = 0.0505	1069.32 ± 40
353.15 K, x2 = 0.1184	1044.77 ± 40
353.15 K, x2 = 0.1739	1025.56 ± 40
353.15 K, x2 = 0.2289	1007.26 ± 40
353.15 K, x2 = 0.2847	989.41 ± 40
353.15 K, x2 = 0.3571	967.26 ± 40
353.15 K, x2 = 0.4248	947.53 ± 40
353.15 K, x2 = 0.4972	927.39 ± 40
353.15 K, x2 = 0.5539	912.26 ± 40
353.15 K, x2 = 0.6198	895.34 ± 40
353.15 K, x2 = 0.674	881.93 ± 40
353.15 K, x2 = 0.7354	867.23 ± 40
353.15 K, x2 = 0.7842	855.91 ± 40
353.15 K, x2 = 0.8527	840.5 ± 40
353.15 K, x2 = 0.9247	824.87 ± 40
